From patent US20260250290A1 (BRISTOL-MYERS SQUIBB COMPANY, priority 2023, published 2026)

Target: T1, full length SGK1 (Homo sapiens, UniProt O00141)
T1 construct: 125 μM full length SGK1 (Life Technologies Part #PR7358A); purchased Life Technologies PR7358A
T1 sequence (O00141 1-431): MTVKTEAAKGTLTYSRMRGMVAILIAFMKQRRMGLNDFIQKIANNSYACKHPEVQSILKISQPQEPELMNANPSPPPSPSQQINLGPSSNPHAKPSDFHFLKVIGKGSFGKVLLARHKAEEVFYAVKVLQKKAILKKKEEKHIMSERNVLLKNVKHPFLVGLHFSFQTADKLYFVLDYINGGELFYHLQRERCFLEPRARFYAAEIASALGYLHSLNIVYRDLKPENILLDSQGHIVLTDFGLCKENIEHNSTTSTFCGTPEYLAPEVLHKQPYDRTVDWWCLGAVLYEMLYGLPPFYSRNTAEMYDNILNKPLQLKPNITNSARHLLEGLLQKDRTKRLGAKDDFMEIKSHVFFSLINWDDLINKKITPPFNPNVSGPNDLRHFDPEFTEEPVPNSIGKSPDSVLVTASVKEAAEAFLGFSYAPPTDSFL
Assay: SGK1 inhibition Assay A (Caliper LabChip electrophoretic separation of fluorescent peptide substrate and phosphorylated product)
Type: biochemical
Conditions: Assay A; 20 μM ATP, 40 min incubation; read-out: SGK1 IC50

Row | Structure (SMILES) | IC50
1 | CC(=O)N1CC=C(c2cc(N3CCC[C@@H](NC(=O)c4sc(Cl)cc4OC4CCN(C)CC4F)C3)c3c(N)ncnn23)C1 (stereo partly drawn) [Example 605, N-((R)-1-(7-(1-acetyl-2,5-dihydro-1H-pyrrol-3-yl)-4-aminopyrrolo[2,1-f][1,2,4]triazin-5-yl)piperidin-3-y1)-5-chloro-3-((3-fluoro-1-methylpiperidin-4-yl)oxy)thiophene-2-carboxamide] | 3 nM
2 | CC(=O)N1CC=C(c2cc(N3CCC[C@@H](NC(=O)c4sc(Cl)cc4OC4CC5CC4CN5)C3)c3c(N)ncnn23)C1 (stereo partly drawn) [Example 606, 3-((2-azabicyclo[2.2.1]heptan-5-yl)oxy)-N-((R)-1-(7-(1-acetyl-2,5-dihydro-1H-pyrrol-3-y1)-4-aminopyrrolo[2,1-f][1,2,4]triazin-5~yl)piperidin-3-y1)-5-chlorothiophene-2-carboxamide] | 9 nM
3 | CC(=O)N1CC=C(c2cc(N3CCC[C@@H](NC(=O)c4sc(Cl)cc4O[C@@H]4C[C@H]5CC[C@@H](C4)N5C)C3)c3c(N)ncnn23)C1 [Example 612, N—((R)-1-(7-(1-acetyl-2,5-dihydro-1H-pyrrol-3-yl)-4-aminopyrrolo[2,1-f][1,2,4]triazin-5-yl)piperidin-3-yl)-5-chloro-3-((8-methyl-8-azabicyclo[3.2.1]octan-3-yl)oxy)thiophene-2-carboxamide] | 0.6 nM
4 | COC(=O)N1CC=C(c2cc(N3CCC[C@@H](NC(=O)c4sc(Cl)cc4O[C@@H]4C[C@H]5CC[C@@H](C4)N5C)C3)c3c(N)ncnn23)C1 [Example 613, methyl 3-(4-amino-5-((R)-3-(5-chloro-3-(((1R,3s,5S)-8-methyl-8-azabicyclo[3.2.1]octan-3-yl)oxy)thiophene-2-carboxamido)piperidin-1-yl)pyrrolo[2,1-f][1,2,4]triazin-7-yl)-2,5-dihydro-1H-pyrrole-1-carboxylate] | 3 nM
5 | CN1[C@@H]2CC[C@H]1C[C@H](Oc1cc(Cl)sc1C(=O)N[C@@H]1CCCN(c3cc(-c4cncnc4)n4ncnc(N)c34)C1)C2 [Example 614, N—((R)-1-(4-amino-7-(pyrimidin-5-yl)pyrrolo[2,1-f][1,2,4]triazin-5-yl)piperidin-3-yl)-5-chloro-3-((8-methyl-8-azabicyclo[3.2.1]octan-3-yl)oxy)thiophene-2-carboxamide] | 3 nM
6 | CC(=O)N1CC=C(c2cc(N3CCC[C@@H](NC(=O)c4sc(Cl)cc4OC4CCN(C5CC5)CC4)C3)c3c(N)ncnn23)C1 [Example 615, (R)—N-(1-(7-(1-acetyl-2,5-dihydro-1H-pyrrol-3-yl)-4-aminopyrrolo[2,1-f][1,2,4]triazin-5-yl)piperidin-3-yl)-5-chloro-3-((1-cyclopropylpiperidin-4-yl)oxy)thiophene-2-carboxamide] | 50 nM
7 | COC(=O)N1CC=C(c2cc(N3CCC[C@@H](NC(=O)c4sc(Cl)cc4OC4CCN(C5CC5)CC4)C3)c3c(N)ncnn23)C1 [Example 616, methyl (R)-3-(4-amino-5-(3-(5-chloro-3-((1-cyclopropylpiperidin-4-yl)oxy)thiophene-2-carboxamido)piperidin-1-yl)pyrrolo[2,1-f][1,2,4]triazin-7-yl)-2,5-dihydro-1H-pyrrole-1-carboxylate] | 6 nM
8 | Nc1ncnn2c(-c3cncnc3)cc(N3CCC[C@@H](NC(=O)c4sc(Cl)cc4OC4CCN(C5CC5)CC4)C3)c12 [Example 617, (R)-N-(1-(4-amino-7-(pyrimidin-5-y1)pyrrolo[2,1-f][1,2,4]triazin-5-yl)piperidin-3-y1)-5-chloro-3-((1-cyclopropylpiperidin-4-yl)oxy)thiophene-2-carboxamide] | 24 nM
9 | CC(=O)N1CC=C(c2cc(N3CCC[C@@H](NC(=O)c4sc(Cl)cc4OC4CCN(CC(C)(C)O)CC4)C3)c3c(N)ncnn23)C1 [Example 618, (R)—N-(1-(7-(1-acetyl-2,5-dihydro-1H-pyrrol-3-yl)-4-aminopyrrolo[2,1-f][1,2,4]triazin-5-yl)piperidin-3-yl)-5-chloro-3-((1-(2-hydroxy-2-methylpropyl)piperidin-4-yl)oxy)thiophene-2-carboxamide] | 9 nM
10 | COC(=O)N1CC=C(c2cc(N3CCC[C@@H](NC(=O)c4sc(Cl)cc4OC4CCN(CC(C)(C)O)CC4)C3)c3c(N)ncnn23)C1 [Example 619, Methyl (R)-3-(4-amino-5-(3-(5-chloro-3-((1-(2-hydroxy-2-methylpropyl)piperidin-4-yl)oxy)thiophene-2-carboxamido)piperidin-1-yl)pyrrolo[2,1-f][1,2,4]triazin-7-yl)-2,5-dihydro-1H-pyrrole-1-carboxylate] | 11 nM
11 | COC(=O)N1CC=C(c2cc(N3CCC[C@@H](NC(=O)c4sc(Cl)cc4OC4CCNC(C)C4)C3)c3c(N)ncnn23)C1 (stereo partly drawn) [Example 624, Methyl 3-(4-amino-5-((3R)-3-(5-chloro-3-((2-methylpiperidin-4-yl)oxy)thiophene-2-carboxamido)piperidin-1-yl)pyrrolo[2,1-f][1,2,4]triazin-7-y1)-2,5-dihydro-1H-pyrrole-1-carboxylate] | 7 nM
12 | CC(C)N1CC2(CC(Oc3cc(Cl)sc3C(=O)N[C@@H]3CCCN(c4cc(-c5ccc(C#N)c(F)c5)n5ncnc(N)c45)C3)C2)C1 [Example 631, (R)—N-(1-(4-amino-7-(4-cyano-3-fluorophenyl)pyrrolo[2,1-f][1,2,4]triazin-5-yl)piperidin-3-yl)-5-chloro-3-((2-isopropyl-2-azaspiro[3.3]heptan-6-yl)oxy)thiophene-2-carboxamide] | 3 nM
13 | Nc1ncnn2c(-c3ccnc(C(F)F)c3)cc(N3CCC[C@@H](NC(=O)c4sc(Cl)cc4OC4CNC4)C3)c12 [Example 632, (R)-N-(1-(4-amino-7-(2-(difluoromethyl)pyridin-4-yl)pyrrolo[2,1-f][1,2,4]triazin-5-y1)piperidin-3-y1)-3-(azetidin-3-yloxy)-5-chlorothiophene-2-carboxamide] | 8 nM
14 | CC(=O)N1CC=C(c2cc(N3CCC[C@@H](NC(=O)c4sc(Cl)cc4OC4CNC4)C3)c3c(N)ncnn23)C1 [Example 633, (R)-N-(1-(7-(1-acetyl-2,5-dihydro-1H-pyrrol-3-yl)-4-aminopyrrolo[2,1-f][1,2,4]triazin-5-yl)piperidin-3-yl)-3-(azetidin-3-yloxy)-5-chlorothiophene-2-carboxamide] | 6 nM
15 | COC(=O)N1CC=C(c2cc(N3CCC[C@@H](NC(=O)c4sc(Cl)cc4OCC4CNC4)C3)c3c(N)ncnn23)C1 [Example 634, Methyl (R)-3-(4-amino-5-(3-(3-(azetidin-3~ylmethoxy)-5-chlorothiophene-2-carboxamido)piperidin-1-y1)pyrrolo[2,1-f][1,2,4]triazin-7-y1)-2,5-dihydro-\H-pyrrole-1-carboxylate] | 18 nM
16 | N#Cc1ccc(-c2cc(N3CCC[C@@H](NC(=O)c4sc(Cl)cc4OCC4CNC4)C3)c3c(N)ncnn23)cn1 [Example 635] | 7 nM
17 | CC(=O)N1CC=C(c2cc(N3CCC[C@@H](NC(=O)c4sc(Cl)cc4OC4CCNC4)C3)c3c(N)ncnn23)C1 (stereo partly drawn) [Example 636, N-((R)-1-(7-(1-acetyl-2,5-dihydro-1H-pyrrol-3-yl)-4-aminopyrrolo[2,1-f][1,2,4]triazin-5-yl)piperidin-3-y1)-5-chloro-3-(pyrrolidin-3-yloxy)thiophene-2-carboxamide] | 5 nM
18 | N#Cc1ccc(-c2cc(N3CCC[C@@H](NC(=O)c4sc(Cl)cc4OC4CCNC4)C3)c3c(N)ncnn23)cn1 (stereo partly drawn) [Example 637, N-((R)-1-(4-amino-7-(6-cyanopyridin-3-yl)pyrrolo[2,1-f][1,2,4]triazin-5-yl)piperidin-3-y1)-5-chloro-3-(pyrrolidin-3-yloxy)thiophene-2-carboxamide] | 12 nM
19 | CC(=O)N1CC=C(c2cc(N3CCC[C@@H](NC(=O)c4sc(Cl)cc4OCC4CCNCC4)C3)c3c(N)ncnn23)C1 [Example 640, (R)-N-(1-(7-(1-acetyl-2,5-dihydro-1H-pyrrol-3-yl)-4-aminopyrrolo[2,1-f][1,2,4]triazin-5-y1)piperidin-3-y1)-5-chloro-3-(piperidin-4-ylmethoxy)thiophene~2-carboxamide] | 8 nM
20 | N#Cc1ccc(-c2cc(N3CCC[C@@H](NC(=O)c4sc(Cl)cc4OCC4CCNCC4)C3)c3c(N)ncnn23)cn1 [Example 641, (R)-N-(1-(4-amino-7-(6~cyanopyridin-3-y1)pyrrolo[2,1-f][1,2,4]triazin-5-y1)piperidin-3-yl)-5-chloro-3-(piperidin-4-ylmethoxy)thiophene-2-carboxamide] | 0.9 nM
21 | NC(=O)c1ccc(-c2cc(N3CCC[C@@H](NC(=O)c4sc(Cl)cc4OCC4CCNCC4)C3)c3c(N)ncnn23)cc1F [Example 642, (R)-N-(1-(4-amino-7-(4-carbamoyl-3-fluorophenyl)pyrrolo[2,1-f][1,2,4]triazin-5-y1)piperidin-3-y1)-5-chloro-3-(piperidin-4-ylmethoxy)thiophene-2-carboxamide] | 4 nM
22 | CN1CCC(COc2cc(Cl)sc2C(=O)N[C@@H]2CCCN(c3cc(-c4cncnc4)n4ncnc(N)c34)C2)CC1 [Example 643, (R)-N-(1-(4-amino-7-(pyrimidin-5-yl)pyrrolo[2,1-f][1,2,4]triazin-5-y1)piperidin-3-y1)-5-chloro-3-((1-methylpiperidin-4-yl)methoxy)thiophene-2-carboxamide] | 8 nM
23 | NC(=O)c1ccc(-c2cc(N3CCC[C@@H](NC(=O)c4sc(Cl)cc4OCC4CCNCC4)C3)c3c(N)ncnn23)cn1 [Example 644, (R)-5-(4-amino-5-(3-(5-chloro-3-(piperidin-4-ylmethoxy)thiophene-2-carboxamido)piperidin-1-y1)pyrrolo[2,1-f][1,2,4]triazin-7-y1)picolinamide] | 0.4 nM
